Measurements from ChEMBL document CHEMBL1134540, “ElogD(oct): a tool for lipophilicity determination in drug discovery. 2. Basic and neutral compounds” (J Med Chem, 2001).

experiment: Partition coefficient (logD7.4); settings: octanol/water, pH 7.4

For CC(C)(C)NCC(O)c1cc(O)cc(O)c1 (stereo unspecified), which logD is on record?
The logD was -1.35.

For CNS(=O)(=O)Cc1ccc2[nH]cc(CCN(C)C)c2c1, which logD is on record?
The logD was -1.

For Oc1cc(Cl)cc(Cl)c1, which logD is on record?
Its logD is 3.68.

With CSc1ncnc2c1ncn2[C@@H]1O[C@H](CO)[C@@H](O)[C@H]1O as the compound, how does the logD read?
Its logD is 0.09.

Which logD does the source give for Brc1cnc2ccccc2c1 here?
The logD was 3.03.

Which logD does the source give for Nc1nc(N)c2nc(-c3ccccc3)c(N)nc2n1 here?
Its logD is 1.21.

Which logD does the source give for Oc1ncnc2[nH]ncc12 [ALLOPURINOL] here?
Its logD is -0.44.

For C=CCc1ccccc1OCC(O)CNC(C)C (stereo unspecified) [ALPRENOLOL], which logD is on record?
The logD was 0.97.

Which logD does the source give for CCOC(=O)C1=C(COCCN)NC(C)=C(C(=O)OC)C1c1ccccc1Cl (stereo unspecified) [AMLODIPINE] here?
The logD was 1.66.

Which logD does the source give for c1ccc(-c2ccc(C(c3ccccc3)n3ccnc3)cc2)cc1 (stereo unspecified) [BIFONAZOLE] here?
The logD was 4.77.

With O=C1CN=C(c2ccccn2)c2cc(Br)ccc2N1 [BROMAZEPAM] as the compound, how does the logD read?
Its logD is 1.65.

For NC(=O)N1c2ccccc2C=Cc2ccccc21 [CARBAMAZEPINE], which logD is on record?
The logD was 2.19.

Which logD does the source give for CN(C)CCC(c1ccc(Cl)cc1)c1ccccn1 (stereo unspecified) [CHLORPHENIRAMINE] here?
The logD was 1.41.

Which logD does the source give for NS(=O)(=O)c1cc(C2(O)NC(=O)c3ccccc32)ccc1Cl (stereo unspecified) [CHLORTHALIDONE] here?
Its logD is 1.11.

With Clc1cccc(Cl)c1N=C1NCCN1 [CLONIDINE] as the compound, how does the logD read?
Its logD is 0.62.

With COC(=O)[C@H]1[C@@H](OC(=O)c2ccccc2)C[C@@H]2CC[C@H]1N2C [COCAINE] as the compound, how does the logD read?
The logD was 1.05.

With COc1ccc2c3c1O[C@H]1[C@@H](O)C=C[C@H]4[C@@H](C2)N(C)CC[C@@]341 [CODEINE] as the compound, how does the logD read?
The logD was 0.23.

For CC/C(=C(/CC)c1ccc(O)cc1)c1ccc(O)cc1 [DIETHYLSTILBESTROL], which logD is on record?
The logD was 5.07.

For CC(C)N(CCC(C(N)=O)(c1ccccc1)c1ccccn1)C(C)C (stereo unspecified) [DISOPYRAMIDE], which logD is on record?
Its logD is -0.66.

With O=C(NCC1CCCCN1)c1cc(OCC(F)(F)F)ccc1OCC(F)(F)F (stereo unspecified) [FLECAINIDE] as the compound, how does the logD read?
Its logD is 0.97.

Which logD does the source give for COC1=CC(=O)C[C@@H](C)[C@]12Oc1c(Cl)c(OC)cc(OC)c1C2=O [GRISEOFULVIN] here?
The logD was 2.18.

For CN1C(=O)C(O)N=C(c2ccccc2Cl)c2cc(Cl)ccc21 (stereo unspecified) [LORMETAZEPAM], which logD is on record?
The logD was 2.72.

Which logD does the source give for CN1CCC[C@H]1c1cccnc1 [NICOTINE] here?
Its logD is 0.4.

With O=[N+]([O-])c1ccc(/C=N/O)o1 [NIFUROXIME] as the compound, how does the logD read?
The logD was 1.28.

For NC(=O)N/N=C/c1ccc([N+](=O)[O-])o1 [NITROFURAZONE], which logD is on record?
The logD was 0.23.

With CNC(=C[N+](=O)[O-])NCCSCc1csc(CN(C)C)n1 [NIZATIDINE] as the compound, how does the logD read?
The logD was -0.52.

With COc1ccc2[nH]c([S+]([O-])Cc3ncc(C)c(OC)c3C)nc2c1 (stereo unspecified) [OMEPRAZOLE] as the compound, how does the logD read?
Its logD is 2.3.

Which logD does the source give for CC(=O)CCCCn1c(=O)c2c(ncn2C)n(C)c1=O [PENTOXIFYLLINE] here?
Its logD is 0.29.

With CN1CCN(CC(=O)N2c3ccccc3C(=O)Nc3cccnc32)CC1 [PIRENZEPINE] as the compound, how does the logD read?
Its logD is -0.61.

With c1ccc2ncccc2c1 [QUINOLINE] as the compound, how does the logD read?
Its logD is 2.03.

For CNC(=C[N+](=O)[O-])NCCSCc1ccc(CN(C)C)o1 [RANITIDINE], which logD is on record?
Its logD is -0.29.

With C[C@]12CC[C@H]3[C@@H](CCC4=CC(=O)CC[C@@]43C)[C@@H]1CC[C@@H]2O [TESTOSTERONE] as the compound, how does the logD read?
The logD was 3.29.

Which logD does the source give for CCCCNc1ccc(C(=O)OCCN(C)C)cc1 [TETRACAINE] here?
Its logD is 2.29.

For CS(=O)(=O)c1ccc([C@@H](O)[C@@H](CO)NC(=O)C(Cl)Cl)cc1 [THIAMPHENICOL], which logD is on record?
Its logD is -0.27.

For CSc1ccc2c(c1)N(CCC1CCCCN1C)c1ccccc1S2 (stereo unspecified) [THIORIDAZINE], which logD is on record?
Its logD is 3.34.

With CCN(CC)CCNC(=O)c1cc(S(C)(=O)=O)ccc1OC [TIAPRIDE] as the compound, how does the logD read?
The logD was -0.09.
